In patent US7253177B2, “Synthesis and antimalarial activity of pyrrolo[3,2-f]quinazoline-1,3-diamine derivatives” (United States of America as Represented by the Secretary of …, priority 2004, dated 2007):
Where “and” joins values, the source holds several entries; their conditions need not be identical. Equal values may be shown once.

Columns and labels:
[1] = tested on: P. cynomolgi sporozoites; experiment: Presumptive causal prophylactic test against P. cynomolgi in Rhesus monkey; assay type: in vivo, Plasmodium cynomolgi; conditions: for protection compared with untreated control: oral 3 mg/kg, 3 mg/kg
Experimental: (e). Toxicity Study in Aotus monkey: Protocol: Two malaria double cured Aotus weighing 1027-695 grams respectively received single dose of 3 mg/kg orally of the two compounds 2b and 3e. The monkeys were weighed and pre-bleed for CBC and Chemistry (ALT, BUN, Creatinine) determination, and again three, seven and 15 days post treatment. Signs of toxicity such as anorexia, vomiting, diarrhea or behavior changes were recorded. […] (f). Antimalarial Activity against P. falciparum in Aotus monkey: Protocol: Six (6) malaria naive Aotus lemurinus lemurinus (weigh 787-978 grms) were divided into two groups of two Aotus each plus two controls (MN13177 male and MN 13153 male) and infected with 5×10^6 P. falciparum FVO malaria parasites with 1 ml of an appropriate dilution in RPMI media intravenously on the saphenous vein. When their parasitemia reached 5×10^4 parasites/ul, treatment was started. Giemsa-stained thick blood smears were prepared daily with a prick in the ear marginal vein and parasites enumerated by the Earle and Perez method. Group 1 Aotus received 3e at 1 mg/kg once a day×three days. Group 2 Aotus received 2b at 1 mg/kg once a day×three days. The monkeys were weight and pre-bled for CBC and Chemistry (ALT, BUN, Creatinine) determination, and on day 4 post-treatmetne (PT). Bleedings for Pk determinations were carried out on day 1 PT at time 0, 1 hr, 7:30 hr and 24 hr PT. Group 1 (receiving 3e) animals cleared the parasitemias on day 3 post treatment (PT) and remained negative up to 100 days PT. In group 2 (receiving 2b), one animal cleared on day 3 PT and the other one on day 4 PT remaining negative up to 100 days PT. […] (g). Antimalarial Activity against P. vivax in Aotus monkey: Protocol: Fourteen (14) P. falciparum cured Aotus l. lemurinus monkeys (male and female) (weight 700-925 grms) were infected intravenously with 5×10^6 parasites of the P. vivax AMRU-1 strain diluted in RPMI media obtained from a donor and divided into two larger groups of 6 monkeys each (Group I and Group II) (2 monkeys per dose level), that received 3e and 6 monkeys (2 monkeys per dose level) that received 2b daily at 0.5, 1.0 and 3 mg/kg/day for a total of 3 days. Two monkeys were left has untreated controls. Treatment started when parasitemia reached 5,000 parasites×cc/mm on day 6 PI. Daily food intake was documented. Daily Giemsa-stained thick blood smears were prepared from a prick in the marginal ear vein and parasites enumerated by the Earle and Perez method. The animals were weighed at weekly intervals. Blood samples for Pk determination were collected at the following time points as follows: Day 0: CBC and chemistry panel (ALT. Creatinine and BUN); Day 4: CBC and chemistry Panel. CBC and chemistry panels were done the day prior to first dose and 24 hours after last dose and at weekly intervals thereafter. […] The other monkeys received 1 and 3 mg/kg of 3e remained negative until day 100 PT. In Group II, all monkeys except for one that received 3 mg/kg of 2b failed treatment and were retreated on day 3 PT with 3e at either 0.25, 0.5 or 1 mg/kg for three days. In the monkeys that received re-treatment at 0.25 mg/kg, one cleared on day 4 PT but needed to be treated with Mefloquine on day 8 PT due to a low platelet count. The other animals that had not been cleared by day 6 PT were treated with Mefloquine. […] P. vivax is known to be very drug resistant to antifolates. (h). Presumptive Causal Prophylactic Test against P. cynomolgi in Rhesus monkey: Protocol:
(1). Type of study: This study is causal prophylactic test. Six Rhesus monkeys weighing 3-4 kg were randomized to 2 control animals and 2 groups of 2 experimental animals each.
(2). Donor monkey: A donor monkey was inoculated intravenously with 1.3 mL freshly-thawed frozen infected red blood cell. When the monkey developed gametocytemia, mosquito feedings were conducted on days 13 and 14 after inoculation. […]

[2] = tested on: P. berghei ANKA; experiment: In vivo antimalarial study against P. berghei in rats; set-up: species or system Plasmodium berghei
[3] = Host toxicity in animal models (general statements); assay type: in vivo; conditions: any dose, all species of animal models studied

SMILES | comparative protection activity ([1]; P. cynomolgi) | day of parasitemia development after sporozoite challenge ([1]; oral 1 mg/kg on days -1, 0, 1, control day 8, listed as WR288830) | protection compared with untreated control [1] | cure against P. berghei in rats ([2]; 5 mg/kg intragastric daily x3 (days 6, 7, 8 post-inoculation)) [%] | cure against P. berghei in rats ([2]; 10 mg/kg intragastric daily x3) [%] | cure against P. berghei in rats ([2]; 20 mg/kg intragastric daily x3) [%] | day of parasitemia development after sporozoite challenge ([1]; oral 1 mg/kg on days -1, 0, 1, control day 8) | day of parasitemia development after sporozoite challenge ([1]; oral 3 mg/kg on days -1, 0, 1, control day 8) [days] | host toxicity in efficacy studies [3]
CCOC(=O)Nc1nc(NC(=O)OCC)c2c(ccc3c2ccn3Cc2ccccc2C(F)(F)F)n1 [Compound 2b] | better protection activity than 3e | 9 days and 15 days | 8 days and 15 days |  |  |  |  |  | 
CC(=O)N(C(C)=O)c1nc(N(C(C)=O)C(C)=O)c2c(ccc3c2ccn3Cc2ccccc2C(F)(F)F)n1 [Compound 3e, 1,3-Bis(diacetylamino)-7-(2-trifluoromethyl)benzyl-7H-pyrrolo[3,2-f]quinazoline] |  |  | 7 days | 100 | 100 | 100 | 8 days and 11 days | 15 | No host toxicity
